Measured values as given in US20230219886A1, “NOVEL SELENO-NSAID ANALOGS AND USES THEREOF” (THE PENN STATE RESEARCH FOUNDATION, priority 2020, published 2023).
Like-named read-outs stand apart in the source and are kept apart here.

What was measured:
[1] = test system: PANC-1 (pancreatic carcinoma); experiment: MTT cell viability assay, Panc-1; details: for cell viability: 48 h
Protocol: (§1) Cell Culture Conditions. The cell lines were obtained from the American Type Culture Collection (ATCC). PANC-1 and Caco-2 cell lines were maintained in DMEM medium (Gibco); HT-29, HCT-116 and RKO cells were maintained in McCoy's 5A medium (Gibco); and DU-145 and H1299 cells were maintained in RPMI 1640 medium (Gibco), supplemented with 10% fetal bovine serum (FBS; Gibco) and 1% antibiotics (10.00 units/mL penicillin and 10.00 mg/mL streptomycin; Gibco). Cells were preserved in tissue culture flasks at 37° C. and 5% CO2. Culture medium was replaced every three days.
(§2) Cell Viability Assay. The effect of each compound on cell viability was tested using the MTT assay (81). Briefly, 9000 cells/well were grown in 96-well plates for 12 h. Then these cells were incubated with either DMSO (control) or nine different concentration between 0.01-50 μM of the test compounds for 24, 48, and 72 h. Three hours before the termination point, 20 μL of MTT were added to measure cellular viability. The resultant formazan crystals were dissolved in 50 μL of DMSO, and absorbance was measured at 570 nm and 630 nm wavelengths. IC50, GI50, TGI and LC50 values were calculated using OriginPro 8.5.1.
(§3) Evaluation of the antiproliferative activities of the novel molecules. […] These four cell lines were treated with each compound at three concentrations (5, 25 and 50 μM) for 48 h.

HCT-116 CRC cells = experiment: MTT cell viability assay, HCT-116; assay type: cell-based, human; details: read-out: IC50
Protocol: as §1, §2

Cyclin E1 = experiment: Western blot protein expression, Cyclin E1; assay type: cell-based, human; details: HT-29, IC50 dose, 12 h and 24 h
Protocol: (§4) Protein Expression Analysis. Western Blot was performed to assess the expression level of different proteins before and after treatment. In brief, HT-29 cells were treated with the compound for different time intervals and the whole-cell lysates were made by lysing cells using RIPA buffer (Thermo Scientific, USA). Protease (Roche, USA) and phosphatase inhibitor cocktails (Sigma-Aldrich, USA) were used to prevent the degradation of the proteins present in the lysate. The resulting lysates were incubated on ice for 30 min and spun at 10,000 rpm for 15 min to pellet down cell debris. The total protein concentration was determined using Bradford assay (Thermo Scientific, USA). Equal amounts of cell lysates were resolved using NuPAGE gel 4-12% (Life Technologies, Carlsbad, Calif.). The resolved proteins were electro-transferred to a PVDF membrane and different antibodies were used to probe the protein expression levels. Enhanced Chemiluminescent reagent (Life technologies, USA) was used to detect the protein of interest.
(§5) To further explore the underlying mechanism of the cell cycle arrest, we studied the expression levels of the different proteins involved in the cell cycle regulation. […] At both time intervals of 12 h and 24 h, the expression levels of cell cycle regulatory proteins cyclin E1 and cyclin B1 were inhibited while p21 was induced (FIG. 7B).

CACO-2 CRC cells = experiment: cells
Protocol: as §1, §2

RKO CRC cells = experiment: cells
Protocol: as §1, §2

H1299 (lung carcinoma) = experiment: MTT cell viability assay, H1299; details: for cell viability: 48 h
Protocol: as §1, §2, §3

[2] = test system: human CRC cells (HT-29, HCT-116, RKO and CACO-2); experiment: MTT assay, panel of four CRC cells; assay type: cell-based; details: 4 CRC cells
Protocol: Cell Culture Conditions. […] Culture medium was replaced every three days.
Evaluation of the antiproliferative activity of methylseleno-NSAIDs, MSA and NSAIDs alone or in combination. […] CRC cells were treated for 24, 48 and 72 h at different concentrations to stablish the dose-response curves.

[3] = test system: DU-145 (prostate carcinoma); experiment: MTT cell viability assay, DU-145; details: for cell viability: 48 h
Protocol: as §1, §2, §3

p21 = experiment: Western blot protein expression, p21; assay type: cell-based, human; details: HT-29, IC50 dose, 12 h and 24 h
Protocol: as §4, §5

Cyclin B1 = experiment: Western blot protein expression, Cyclin B1; assay type: cell-based, human; details: HT-29, IC50 dose, 12 h and 24 h
Protocol: as §4, §5

HT-29 cells [4] = experiment: Caspase 3/7 assay; assay type: cell-based, human; details: HT29, 5 μM
Protocol: (§6) Apoptosis assay. Induction of apoptosis after the treatment with compounds 1a and 6a were analyzed using Annexin V & Dead cell assay kit and Caspase 3/7 Assay kit (EMD Millipore, Billercia, Mass.) using Muse cell analyzer following manufacturer's protocol. Briefly, the HT-29 cells were plated in triplicates in a six-well plate at densities of 1×10^5 cells/well. Following day, the cells were treated with the compounds 1a and 6a and incubated for 48 h. At the end of the treatment duration, the cells were prepared following manufacturer's guidelines and the data were acquired using Muse 1.4 software.
(§7) Compounds 1a and 6a induced apoptosis in CRC cells. We further investigated whether the inhibition of cell cycle leads to apoptosis. In pursuit of this, HT29 cells were treated with 5 μM of the compounds 1a and 6a for indicated time intervals. Apoptosis was measured by using Annexin V & Dead cell assay kit and Caspase 3/7 Assay kit using Muse cell analyzer following manufacturer's protocol. The live cell population resided in the lower left quadrant and they start shifting towards the lower right quadrant (early apoptotic) or to upper right quadrant (late apoptotic/dead) after treatments. […] A similar trend was also observed after 6a treatment where the live cell population were decreased from <75% to <65% after 12 h and 24 h treatment, respectively.

HT-29 cells [5] = experiment: Annexin V & Dead cell apoptosis assay; assay type: cell-based, human; details: HT29, 5 μM, 12 h
Protocol: as §6, §7

HT-29 (CRC) = experiment: MTT cell viability assay, HT-29; details: for CC50: read-out: LC50; for cell viability: 48 h
Protocol: as §1, §2, §3

[6] = Homo sapiens, PANC-1, 48 h, read-out: cell viability
[7] = Homo sapiens, NCI-H1299, 48 h, read-out: cell viability
[8] = Homo sapiens, DU-145, 48 h, read-out: cell viability
[9] = Homo sapiens, HT-29, 48 h, read-out: cell viability

C[Se]C(=O)c1ccccc1OC(C)=O [Compound 1a, 2-((methylselanyl)carbonyl)phenyl acetate]
viability at 5 µM [1, 6]: 43.7 ± 12.1% | viability at 25 µM [1, 6]: 36.9 ± 6.3% | viability at 50 µM [1, 6]: 36.8 ± 6.8% | IC50 (HCT-116 CRC cells; Homo sapiens, HCT-116, 24 h): > 50000 nM | IC50 (HCT-116 CRC cells; Homo sapiens, HCT-116, 48 h): 2200 ± 300 nM | IC50 (HCT-116 CRC cells; Homo sapiens, HCT-116, 72 h): 1000 ± 200 nM | expression level of Cyclin E1 (Cyclin E1): went down substantially | IC50 (CACO-2 CRC cells; Homo sapiens, Caco-2, 24 h): 2600 ± 200 nM | IC50 (CACO-2 CRC cells; Homo sapiens, Caco-2, 48 h): 900 ± 100 nM | IC50 (CACO-2 CRC cells; Homo sapiens, Caco-2, 72 h): 800 ± 100 nM | IC50 (RKO CRC cells; Homo sapiens, 24 h): > 50000 nM | IC50 (RKO CRC cells; Homo sapiens, 48 h): > 50000 nM | IC50 (RKO CRC cells; Homo sapiens, 72 h): > 50000 nM | viability at 5 µM (H1299 (lung carcinoma); [7]): 48.7 ± 5% | viability at 25 µM (H1299 (lung carcinoma); [7]): 41.6 ± 7.2% | viability at 50 µM (H1299 (lung carcinoma); [7]): 31.4 ± 7.7% | anti-tumoral activity versus MSA and NSAIDs as single agents or combined [2]: higher anti-tumoral activity | viability at 5 µM [3, 8]: 43.2 ± 1.8% | viability at 25 µM [3, 8]: 35.9 ± 7% | viability at 50 µM [3, 8]: 36.5 ± 6.7% | expression level of p21 (p21): sharp increase | expression level of Cyclin B1 (Cyclin B1): went down substantially | apoptotic cell population (HT-29 cells [4]): time dependent increase | live cells (HT-29 cells [5]): < 76% | increase on cytotoxic potency compared with parent NSAID scaffolds (HT-29 (CRC)): three-fold | TGI (HT-29 (CRC); HT-29, 24 h): 500 ± 300 nM | TGI (HT-29 (CRC); HT-29, 48 h): 200 ± 100 nM | TGI (HT-29 (CRC); HT-29, 72 h): 700 ± 300 nM | GI50 (HT-29 (CRC); Homo sapiens, HT-29, 24 h): 100 ± 100 nM | IC50 (HT-29 (CRC); Homo sapiens, HT-29, 24 h): 1900 ± 600 nM | CC50 (HT-29 (CRC); Homo sapiens, HT-29, 24 h): 1700 ± 1600 nM | GI50 (HT-29 (CRC); Homo sapiens, HT-29, 48 h): 100 ± 100 nM | IC50 (HT-29 (CRC); Homo sapiens, HT-29, 48 h): 1200 ± 100 nM | CC50 (HT-29 (CRC); Homo sapiens, HT-29, 48 h): 700 ± 100 nM | viability at 5 µM (HT-29 (CRC); [9]): 20.8 ± 5.6% | viability at 25 µM (HT-29 (CRC); [9]): 18.5 ± 4.1% | viability at 50 µM (HT-29 (CRC); [9]): 17.7 ± 12.6% | GI50 (HT-29 (CRC); Homo sapiens, HT-29, 72 h): 200 ± 100 nM | IC50 (HT-29 (CRC); Homo sapiens, HT-29, 72 h): 1200 ± 400 nM | CC50 (HT-29 (CRC); Homo sapiens, HT-29, 72 h): 2500 ± 1400 nM | cytotoxicity at 5 µM (HT-29 (CRC); Homo sapiens, HT-29, read-out: inhibition in cell viability): 75 to 80%

C[Se]C(=O)CC1=C(C)/C(=C/c2ccc([S+](C)[O-])cc2)c2ccc(F)cc21 (stereo not drawn) [Compound 6a, Se-methyl (Z)-2-(5-fluoro-2-methyl-1-(4-(methylsulfinyl)benzylidene)-1H-indenyl)ethaneselenoate]
cell viability ([1]; Panc-1, 5 μM): 49.4 ± 20.1% | cell viability ([1]; Panc-1, 25 μM): 29.0 ± 9.5% | cell viability ([1]; Panc-1, 50 μM): 21.3 ± 9.2% | IC50 (HCT-116 CRC cells; HCT-116, 24 h): 7300 ± 2300 nM | IC50 (HCT-116 CRC cells; HCT-116, 48 h): 3200 ± 700 nM | IC50 (HCT-116 CRC cells; HCT-116, 72 h): 1800 ± 600 nM | expression level of Cyclin E1 (Cyclin E1): went down substantially | IC50 (CACO-2 CRC cells; CACO-2, 24 h): 3000 ± 500 nM | IC50 (CACO-2 CRC cells; CACO-2, 48 h): 1300 ± 600 nM | IC50 (CACO-2 CRC cells; CACO-2, 72 h): 700 ± 200 nM | IC50 (RKO CRC cells; RKO, 24 h): > 50000 nM | IC50 (RKO CRC cells; RKO, 48 h): 17200 ± 2400 nM | IC50 (RKO CRC cells; RKO, 72 h): 17300 ± 800 nM | cell viability (H1299 (lung carcinoma); H1299, 5 μM): 53.4 ± 20.2% | cell viability (H1299 (lung carcinoma); H1299, 25 μM): 41.9 ± 14.9% | cell viability (H1299 (lung carcinoma); H1299, 50 μM): 31.3 ± 6.4% | anti-tumoral activity versus MSA and NSAIDs as single agents or combined [2]: higher anti-tumoral activity | cell viability ([3]; DU145, 5 μM): 60.1 ± 2.2% | cell viability ([3]; DU145, 25 μM): 44.9 ± 2.4% | cell viability ([3]; DU145, 50 μM): 52.5 ± 2.9% | expression level of p21 (p21): sharp increase | expression level of Cyclin B1 (Cyclin B1): went down substantially | apoptotic cell population (HT-29 cells [4]): time dependent increase | live cells (HT-29 cells [5]): < 75% | increase on cytotoxic potency compared with parent NSAID scaffolds (HT-29 (CRC); HT-29): three-fold | cell viability (HT-29 (CRC); HT-29, 5 μM): 22.9 ± 2.9% | cell viability (HT-29 (CRC); HT-29, 25 μM): 11.9 ± 6.6% | cell viability (HT-29 (CRC); HT-29, 50 μM): 11.1 ± 6.2% | GI50 (HT-29 (CRC); HT-29, 24 h): 1200 ± 1100 nM | IC50 (HT-29 (CRC); HT-29, 24 h): 2400 ± 300 nM | TGI (HT-29 (CRC); HT-29, 24 h): 9900 ± 3900 nM | GI50 (HT-29 (CRC); HT-29, 48 h): 1400 ± 700 nM | IC50 (HT-29 (CRC); HT-29, 48 h): 2000 ± 700 nM | TGI (HT-29 (CRC); HT-29, 48 h): 3300 ± 300 nM | GI50 (HT-29 (CRC); HT-29, 72 h): 500 ± 500 nM | IC50 (HT-29 (CRC); HT-29, 72 h): 1400 ± 300 nM | TGI (HT-29 (CRC); HT-29, 72 h): 2400 ± 400 nM | CC50 (HT-29 (CRC); HT-29, 24 h): > 50000 nM | CC50 (HT-29 (CRC); HT-29, 48 h): 10100 ± 5200 nM | CC50 (HT-29 (CRC); HT-29, 72 h): 6300 ± 700 nM
